# Test results taken from ChEMBL document CHEMBL4651402, “Screening of ~5500 FDA-approved drugs and clinical candidates for anti-SARS-CoV-2 activity” (2021).
# Test system: SARS-CoV-2
# Experiment: microbe, parasite or virus in culture
# Conditions: Severe acute respiratory syndrome coronavirus 2, Vero C1008, 48 h
SMILES,IC50 [µM],IC50 (read-out: pIC50 (converted)) [µM]
COc1ccccc1OCC(O)COC(N)=O (centres undefined) [METHOCARBAMOL],> 20,> 20
COc1ccccc1CNCCCCCCNCCCCCCCCNCCCCCCNCc1ccccc1OC [METHOCTRAMINE],> 20,> 20
COc1cc2c(cc1OC)C(CCc1ccc(Cl)cc1)N(C)CC2 (centres undefined) [METHOPHOLINE],> 20,> 20
COc1ccc(OC)c(C(O)C(C)N)c1 (centres undefined) [METHOXAMINE],> 20,> 20
COc1c2occc2cc2ccc(=O)oc12 [METHOXSALEN],> 20,> 20
CNC(C)Cc1ccccc1OC (centres undefined) [METHOXYPHENAMINE],> 20,> 20
C[N+]1(C)[C@@H]2C[C@@H](OC(=O)[C@H](CO)c3ccccc3)C[C@H]1[C@@H]1O[C@@H]12 [METHSCOPOLAMINE],> 20,> 20
CN1C(=O)CC(C)(c2ccccc2)C1=O (centres undefined) [METHSUXIMIDE],> 20,> 20
CCCCCCCCCCCCCCC1(C(=O)OC)CO1 (centres undefined) [METHYL PALMOXIRATE],> 20,> 20
CC[N+](C)(CC)CCOC(=O)C(O)(c1ccccc1)c1ccccc1 [METHYLBENACTYZIUM],> 20,> 20
Cc1cc(C(C)(C)CC(C)(C)C)ccc1OCCOCC[N+](C)(C)Cc1ccccc1 [METHYLBENZETHONIUM],> 20,> 20
CC(N)(Cc1ccc(O)c(O)c1)C(=O)O (stereo not drawn) [METHYLDOPA (RACEMIC)],> 20,> 20
CCOC(=O)[C@@](C)(N)Cc1ccc(O)c(O)c1 [METHYLDOPATE],> 20,> 20
C[N+]1(CC2CC2)CC[C@]23c4c5ccc(O)c4O[C@H]2C(=O)CC[C@@]3(O)[C@H]1C5 (some centres undefined) [METHYLNALTREXONE],> 20,> 20
COC(=O)c1ccc(O)cc1 [METHYLPARABEN],> 20,> 20
C[C@H]1C[C@@H]2[C@H]([C@@H](O)C[C@@]3(C)[C@H]2CC[C@]3(O)C(=O)CO)[C@@]2(C)C=CC(=O)C=C12 [METHYLPREDNISOLONE],> 20,> 20
C[C@]12CCC(=O)C=C1CC[C@@H]1[C@@H]2CC[C@@]2(C)[C@H]1CC[C@]2(C)O [METHYLTESTOSTERONE],> 20,> 20
Cc1cc(=O)[nH]c(=S)[nH]1 [METHYLTHIOURACIL],> 20,> 20
CN1c2ccccc2Sc2ccc(CC(=O)O)cc21 [METIAZINIC ACID],> 20,> 20
COc1cc(Cc2cnc(N)nc2N)cc(OC)c1SC [METIOPRIM],> 20,> 20

SMILES,IC50 [µM],IC50 (read-out: pIC50 (converted)) [µM]
CSc1ccc2c(c1)C(N1CCN(C)CC1)Cc1ccccc1S2 (centres undefined) [METITEPINE],> 20,> 20
Cc1sc2ccccc2c1CC1=NCCN1 [METIZOLINE],> 20,> 20
CCN(CC)CCNC(=O)c1cc(Cl)c(N)cc1OC [METOCLOPRAMIDE],> 20,> 20
Cc1ccccc1N1C(=O)c2cc(S(N)(=O)=O)c(Cl)cc2NC1C (centres undefined) [METOLAZONE],> 20,> 20
CS(=O)(=O)c1ccc2c(c1)N(CCCN1CCC(C(N)=O)CC1)c1ccccc1S2 [METOPIMAZINE],> 20,> 20
Cc1nc(N)nc(N)c1-c1ccc(Cl)c(Cl)c1 [METOPRINE],> 20,> 20
COCCc1ccc(OCC(O)CNC(C)C)cc1 (centres undefined) [METOPROLOL],> 20,> 20
CC(=O)Nc1c(I)c(C(=O)N[C@H]2C(O)O[C@H](CO)[C@@H](O)[C@@H]2O)c(I)c(N(C)C(C)=O)c1I (some centres undefined) [METRIZAMIDE],> 20,> 20
Cc1ncc([N+](=O)[O-])n1CCO [METRONIDAZOLE],> 20,> 20
CC(C)(C(=O)c1cccnc1)c1cccnc1 [METYRAPONE],> 20,> 20
CC[C@H](C)C(=O)O[C@H]1CCC=C2C=C[C@H](C)[C@H](CC[C@@H]3C[C@@H](O)CC(=O)O3)[C@H]21 [MEVASTATIN],> 20,> 20
COc1ccc(C(=O)c2ccc(C)cc2)c(O)c1 [MEXENONE],> 20,> 20
CN1CCN2c3ccccc3Cc3ccccc3C2C1 (centres undefined) [MIANSERIN],> 20,> 20
c1ccc(C(CC2=NCCN2)c2ccccn2)cc1 (centres undefined) [MIDAGLIZOLE],> 20,> 20
COc1ccc(OC)c(C(O)CNC(=O)CN)c1 (centres undefined) [MIDODRINE],> 20,> 20
CC(C)/N=C/Nc1ccc(-c2c[nH]cn2)cc1 [MIFENTIDINE],> 20,> 20
CC#C[C@]1(O)CC[C@H]2[C@@H]3CCC4=CC(=O)CCC4=C3[C@@H](c3ccc(N(C)C)cc3)C[C@@]21C [MIFEPRISTONE],> 25.1,> 25.1
COP(=O)(OC)OC(c1ccc(Cl)cc1)P(=O)(OC)OC (centres undefined) [MIFOBATE],> 20,> 20
OCCN1C[C@H](O)[C@@H](O)[C@H](O)[C@H]1CO [MIGLITOL],> 20,> 20
CO/N=C/C1=CCCN(C)C1 [MILAMELINE],> 20,> 20
COc1cc2[nH]c(C)c(CCN3CCN(c4ccccc4OC)CC3)c2cc1OC [MILIPERTINE],> 20,> 20

SMILES,IC50 [µM],IC50 (read-out: pIC50 (converted)) [µM]
Cc1[nH]c(=O)c(C#N)cc1-c1ccncc1 [MILRINONE],> 20,> 20
Cc1cc(-c2ccccc2)nnc1NCCN1CCOCC1 [MINAPRINE],> 20,> 20
CCCc1c2nc(C(=O)O)cc(NC)c2cc2c(=O)cc(C(=O)O)oc12 [MINOCROMIL],> 20,> 20
CN(C)c1ccc(O)c2c1C[C@H]1C[C@H]3[C@H](N(C)C)C(O)=C(C(N)=O)C(=O)[C@@]3(O)C(O)=C1C2=O [MINOCYCLINE],> 20,> 20
Nc1cc(N2CCCCC2)nc(N)[n+]1[O-] [MINOXIDIL],> 20,> 20
O=c1[nH]c(=O)c(Cc2cccc(C(F)(F)F)c2)c([C@H]2CC[C@H](c3ccccc3)CC2)[nH]1 [MIRICORILANT],> 20,> 20
CN1CCN2c3ncccc3Cc3ccccc3C2C1 (centres undefined) [MIRTAZAPINE],> 20,> 20
COCC(O)Cn1ccnc1[N+](=O)[O-] (centres undefined) [MISONIDAZOLE],> 20,> 20
CCCCC(C)(O)C/C=C/[C@H]1[C@H](O)CC(=O)[C@@H]1CCCCCCC(=O)OC (some centres undefined) [MISOPROSTOL],> 20,> 20
CCc1ccc(C(=O)COc2ccc(CC3SC(=O)NC3=O)cc2)nc1 (centres undefined) [MITOGLITAZONE],> 20,> 20
CO[C@@]12[C@H](COC(N)=O)C3=C(C(=O)C(C)=C(N)C3=O)N1C[C@@H]1N[C@@H]12 [MITOMYCIN],> 20,> 20
Clc1ccc(C(c2ccccc2Cl)C(Cl)Cl)cc1 (centres undefined) [MITOTANE],> 20,> 20
O=C1c2c(O)ccc(O)c2C(=O)c2c(NCCNCCO)ccc(NCCNCCO)c21 [MITOXANTRONE],> 20,> 20
O=C(CN1C(=O)C2(CCCC2)NC[C@H]1c1cc(F)cc(F)c1)Nc1ccc2c(c1)C[C@@]1(C2)C(=O)Nc2ncccc21 [MK3207],> 20,> 20
CN(C)C(=O)CCSC(SCCC(=O)O)c1cccc(/C=C/c2ccc3ccc(Cl)cc3n2)c1 (centres undefined) [MK-571],> 20,> 20
CCn1ncnc1COc1nn2c(-c3ccccc3F)nnc2cc1C(C)(C)C [MK-0777],> 20,> 20
NC1(c2ccc(-c3nc4ccn5c(=O)[nH]nc5c4cc3-c3ccccc3)cc2)CCC1 [MK-2206],> 20,> 20
Cc1ccc(Cc2cc3c(=O)n([C@H]4CCCC[C@@H]4O)cnc3c3ccccc23)cn1 [MK-7622],> 20,> 20
CS(=O)(=O)c1ccc(-c2cnc(N)c(-c3ccc(C(F)(F)F)nc3)c2)cc1 [MMV-048],> 20,> 20
Nc1ccccc1NC(=O)c1ccc(CNc2nccc(-c3cccnc3)n2)cc1 [MOCETINOSTAT],> 20,> 20
